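Each compound was tested at five concentrations against cells in 96-well plates for 48 hours. The concentration for 50% growth inhibition is given as GI50. TGI denotes the concentration required for complete inhibition of growth.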
Tests used:
Assay in all cases: NCI anticancer screen, dose series, 48 h
A549 NSCLC = tested on: A549 NSCLC
HOP-92 NSCLC = tested on: HOP-92 NSCLC
TK-10 renal = tested on: TK-10 renal
OVCAR-5 ovarian = tested on: OVCAR-5 ovarian
SF-295 CNS = tested on: SF-295 CNS
HS 578T breast = tested on: HS 578T breast
CCRF-CEM leukemia = tested on: CCRF-CEM leukemia
NCI/ADR-RES ovarian = tested on: NCI/ADR-RES ovarian
UACC-257 melanoma = tested on: UACC-257 melanoma
SF-268 CNS = tested on: SF-268 CNS
KM12 colon = tested on: KM12 colon
IGROV1 ovarian = tested on: IGROV1 ovarian
NCI-H226 lung = tested on: NCI-H226 lung
CAKI-1 renal = tested on: CAKI-1 renal
SF-539 CNS = tested on: SF-539 CNS
SW-620 colon = tested on: SW-620 colon
U251 CNS = tested on: U251 CNS
786-0 renal = tested on: 786-0 renal
NCI-H460 lung = tested on: NCI-H460 lung
HL-60(TB) leukemia = tested on: HL-60(TB) leukemia
MOLT-4 leukemia = tested on: MOLT-4 leukemia
SK-OV-3 ovarian = tested on: SK-OV-3 ovarian
SK-MEL-2 melanoma = tested on: SK-MEL-2 melanoma
UACC-62 melanoma = tested on: UACC-62 melanoma
A498 renal = tested on: A498 renal
COLO 205 colon = tested on: COLO 205 colon
NCI-H23 lung = tested on: NCI-H23 lung
SR leukemia = tested on: SR leukemia
HOP-62 NSCLC = tested on: HOP-62 NSCLC
SNB-19 CNS = tested on: SNB-19 CNS
OVCAR-4 ovarian = tested on: OVCAR-4 ovarian
MDA-MB-435 = tested on: MDA-MB-435
SN12C renal = tested on: SN12C renal
MDA-MB-231 breast = tested on: MDA-MB-231 breast
MCF7 breast = tested on: MCF7 breast
K-562 leukemia = tested on: K-562 leukemia
HCT-116 colon = tested on: HCT-116 colon
HCT-15 colon = tested on: HCT-15 colon
EKVX NSCLC = tested on: EKVX NSCLC
RPMI-8226 leukemia = tested on: RPMI-8226 leukemia
UO-31 renal = tested on: UO-31 renal
PC-3 prostate = tested on: PC-3 prostate
OVCAR-3 ovarian = tested on: OVCAR-3 ovarian
LOX IMVI melanoma = tested on: LOX IMVI melanoma
SK-MEL-28 melanoma = tested on: SK-MEL-28 melanoma
RXF 393 renal = tested on: RXF 393 renal
M14 melanoma = tested on: M14 melanoma
DU-145 prostate = tested on: DU-145 prostate
OVCAR-8 ovarian = tested on: OVCAR-8 ovarian
NCI-H522 lung = tested on: NCI-H522 lung
SK-MEL-5 melanoma = tested on: SK-MEL-5 melanoma
BT-549 breast = tested on: BT-549 breast
ACHN renal = tested on: ACHN renal
MALME-3M melanoma = tested on: MALME-3M melanoma
SNB-75 CNS = tested on: SNB-75 CNS
HT29 colon = tested on: HT29 colon

Cn1nc(-c2cccs2)cc1/N=C(\N)C(C)(C#N)Cc1ccccc1 (configuration not stated)
GI50 (A549 NSCLC): 23.4 µM | TGI (A549 NSCLC): 57.1 µM | GI50 (HOP-92 NSCLC): 32.7 µM | TGI (HOP-92 NSCLC): > 100 µM | GI50 (TK-10 renal): 27.3 µM | TGI (TK-10 renal): 91.6 µM | GI50 (OVCAR-5 ovarian): 31.6 µM | TGI (OVCAR-5 ovarian): 75.8 µM | GI50 (SF-295 CNS): 26.9 µM | TGI (SF-295 CNS): 75.7 µM | GI50 (HS 578T breast): 18.3 µM | TGI (HS 578T breast): 58.5 µM | GI50 (CCRF-CEM leukemia): 46.4 µM | TGI (CCRF-CEM leukemia): > 100 µM | GI50 (NCI/ADR-RES ovarian): 23.7 µM | TGI (NCI/ADR-RES ovarian): 49.5 µM | GI50 (UACC-257 melanoma): 32 µM | TGI (UACC-257 melanoma): 71.8 µM | GI50 (SF-268 CNS): 36.9 µM | TGI (SF-268 CNS): > 100 µM | GI50 (KM12 colon): 29 µM | TGI (KM12 colon): 93.7 µM | GI50 (IGROV1 ovarian): 54.2 µM | TGI (IGROV1 ovarian): > 100 µM | GI50 (NCI-H226 lung): 20.4 µM | TGI (NCI-H226 lung): 58.1 µM | GI50 (CAKI-1 renal): 22.9 µM | TGI (CAKI-1 renal): 60.8 µM | GI50 (SF-539 CNS): 37.6 µM | TGI (SF-539 CNS): 77.1 µM | GI50 (SW-620 colon): 34.2 µM | TGI (SW-620 colon): > 100 µM | GI50 (U251 CNS): 21.9 µM | TGI (U251 CNS): 52.7 µM | GI50 (786-0 renal): 39.7 µM | TGI (786-0 renal): > 100 µM | GI50 (NCI-H460 lung): 26.7 µM | TGI (NCI-H460 lung): 80.7 µM | GI50 (HL-60(TB) leukemia): 26.5 µM | TGI (HL-60(TB) leukemia): 59.5 µM | GI50 (MOLT-4 leukemia): 67.1 µM | TGI (MOLT-4 leukemia): > 100 µM | GI50 (SK-OV-3 ovarian): 44.8 µM | TGI (SK-OV-3 ovarian): > 100 µM | GI50 (SK-MEL-2 melanoma): 63.7 µM | TGI (SK-MEL-2 melanoma): > 100 µM | GI50 (UACC-62 melanoma): 22.8 µM | TGI (UACC-62 melanoma): 49.6 µM | GI50 (A498 renal): 32 µM | TGI (A498 renal): 64.7 µM | GI50 (COLO 205 colon): 39.9 µM | TGI (COLO 205 colon): > 100 µM | GI50 (NCI-H23 lung): 27.7 µM | TGI (NCI-H23 lung): 53.9 µM | GI50 (SR leukemia): 45.2 µM | TGI (SR leukemia): > 100 µM | GI50 (HOP-62 NSCLC): 38.7 µM | TGI (HOP-62 NSCLC): > 100 µM | GI50 (SNB-19 CNS): 62.7 µM | TGI (SNB-19 CNS): > 100 µM | GI50 (OVCAR-4 ovarian): 28.1 µM | TGI (OVCAR-4 ovarian): > 100 µM | GI50 (MDA-MB-435): 25.7 µM | TGI (MDA-MB-435): 62.2 µM | GI50 (SN12C renal): 24.8 µM | TGI (SN12C renal): 79.3 µM | GI50 (MDA-MB-231 breast): 16.3 µM | TGI (MDA-MB-231 breast): 39.4 µM | GI50 (MCF7 breast): 31.5 µM | TGI (MCF7 breast): > 100 µM | GI50 (K-562 leukemia): 33.3 µM | TGI (K-562 leukemia): > 100 µM | GI50 (HCT-116 colon): 27.2 µM | TGI (HCT-116 colon): > 100 µM | GI50 (HCT-15 colon): 29.3 µM | TGI (HCT-15 colon): > 100 µM | GI50 (EKVX NSCLC): 47.4 µM | TGI (EKVX NSCLC): > 100 µM | GI50 (RPMI-8226 leukemia): 15.5 µM | TGI (RPMI-8226 leukemia): 46.5 µM | GI50 (UO-31 renal): 44.1 µM | TGI (UO-31 renal): > 100 µM | GI50 (PC-3 prostate): 32.4 µM | TGI (PC-3 prostate): 90.4 µM | GI50 (OVCAR-3 ovarian): 21.9 µM | TGI (OVCAR-3 ovarian): 58.3 µM | GI50 (LOX IMVI melanoma): 23.3 µM | TGI (LOX IMVI melanoma): 53.3 µM | GI50 (SK-MEL-28 melanoma): 70.3 µM | TGI (SK-MEL-28 melanoma): > 100 µM | GI50 (RXF 393 renal): 49.3 µM | TGI (RXF 393 renal): 90.3 µM | GI50 (M14 melanoma): 29.9 µM | TGI (M14 melanoma): > 100 µM | GI50 (DU-145 prostate): 47.6 µM | TGI (DU-145 prostate): > 100 µM | GI50 (OVCAR-8 ovarian): 37.1 µM | TGI (OVCAR-8 ovarian): 98.7 µM | GI50 (NCI-H522 lung): 56.1 µM | TGI (NCI-H522 lung): > 100 µM | GI50 (SK-MEL-5 melanoma): 18.4 µM | TGI (SK-MEL-5 melanoma): 37.4 µM | GI50 (BT-549 breast): 35.4 µM | TGI (BT-549 breast): > 100 µM | GI50 (ACHN renal): 20.7 µM | TGI (ACHN renal): 48.4 µM

Cn1cc(NC(=O)c2cc(NC(=O)c3cc(NC=O)cn3C)cn2C)cc1C(=O)NCCC(=N)N
TGI (MALME-3M melanoma): > 100 µM | TGI (TK-10 renal): > 100 µM | TGI (OVCAR-5 ovarian): > 100 µM | TGI (SF-295 CNS): > 100 µM | TGI (HS 578T breast): > 100 µM | TGI (CCRF-CEM leukemia): > 100 µM | TGI (NCI/ADR-RES ovarian): > 100 µM | TGI (UACC-257 melanoma): > 100 µM | TGI (SF-268 CNS): > 100 µM | TGI (KM12 colon): > 100 µM | TGI (IGROV1 ovarian): > 100 µM | TGI (NCI-H226 lung): > 100 µM | TGI (CAKI-1 renal): > 100 µM | TGI (SF-539 CNS): > 100 µM | TGI (SW-620 colon): > 100 µM | TGI (U251 CNS): > 100 µM | TGI (786-0 renal): > 100 µM | TGI (NCI-H460 lung): > 100 µM | TGI (HL-60(TB) leukemia): > 100 µM | TGI (MOLT-4 leukemia): > 100 µM | TGI (SK-OV-3 ovarian): > 100 µM | TGI (SK-MEL-2 melanoma): > 100 µM | TGI (UACC-62 melanoma): > 100 µM | TGI (A498 renal): > 100 µM | TGI (COLO 205 colon): > 100 µM | TGI (NCI-H23 lung): > 100 µM | TGI (HOP-62 NSCLC): > 100 µM | TGI (SNB-19 CNS): > 100 µM | TGI (MDA-MB-435): > 100 µM | TGI (SN12C renal): > 100 µM | TGI (SNB-75 CNS): > 100 µM | TGI (MDA-MB-231 breast): > 100 µM | TGI (MCF7 breast): > 100 µM | TGI (K-562 leukemia): > 100 µM | TGI (HCT-116 colon): > 100 µM | TGI (HCT-15 colon): > 100 µM | TGI (EKVX NSCLC): > 100 µM | TGI (RPMI-8226 leukemia): > 100 µM | TGI (UO-31 renal): > 100 µM | TGI (PC-3 prostate): > 100 µM | TGI (OVCAR-3 ovarian): > 100 µM | TGI (LOX IMVI melanoma): > 100 µM | TGI (SK-MEL-28 melanoma): > 100 µM | TGI (RXF 393 renal): > 100 µM | TGI (HT29 colon): > 100 µM | TGI (M14 melanoma): > 100 µM | TGI (DU-145 prostate): > 100 µM | TGI (OVCAR-8 ovarian): > 100 µM | TGI (SK-MEL-5 melanoma): > 100 µM | TGI (BT-549 breast): > 100 µM | TGI (ACHN renal): > 100 µM
